We go through 1 compound from US6759429B2, “Pyrrole derivatives” (Sumitomo Pharmaceuticals Co., Ltd., priority 2000, dated 2004).

For this assay, the system named is TGF-β. Nature of the assay: Effects on the extracellular matrix production by TGF-β (proteoglycan production in fibroblast). The class given is cell-based. The following applies: Rattus norvegicus, NRK-49F cells, 3 ng/ml TGF-β, 24 h, [35S]-proteoglycan radioactivity, read-out: TGF-β inhibitory rate (%). On the procedure:
Effects on the Extracellular Matrix Production by TGF-β The effect of the compounds of Examples on the production of proteoglycan when TGF-β was added to fibroblast was evaluated. NRK-49F cells (rat fibroblast) were cultured in Dulbecco's Modified Eagle Medium (DMEM: manufactured by GIBCO) containing 10% bovine serum, and used in this experiment. The cells were put into a 96-well plate in an amount of 2.5×10^4 cells/100 μl/well. On the next day, the medium in the plate was exchanged to the DMEM medium containing 3 ng/ml of TGF-β (manufactured by Nacalai Tesque, Inc.), 0.5 μCi/well of [^35S]-Na2SO4, and a test compound. […] The gel after electrophoresis was dried with a gel drier, and exposed to an imaging plate, which was analyzed with […] (manufactured by Fuji Photo Film). The radioactivity of proteoglycan to be electrophoresed was measured, and the TGF-β inhibitory rate was calculated by the following equation. TGF-β Inhibitory rate (%)=(A−B)×100/(A−C) A: Radioactivity in the presence of TGF-β without a test compound B: Radioactivity in the presence of TGF-β and a test compound C: Radioactivity in the absence of TGF-β and a test compound The TGF-β inhibitory rates (%) of the test compound at concentrations of 3 μM and 10 μM are shown in Table 1.

Turning to `COC(=O)c1cc(Cl)ccc1/C=C/Cn1cccc1C(=O)c1ccc(O)cc1` [Example 103], where the note is “test compound 3 μM”, the inhibition at 3 µM came to 55%. Moreover, the inhibition at 10 µM (test compound 10 μM) stood at 90%.
